# Assay results taken from patent US11865099B2, “Product based on iron bis-glycinate chelate and alginic acid and/or water-soluble salts thereof, formulations thereof, and pharmaceutical uses thereof” (LABORATORI BALDACCI S.P.A., priority 2015, dated 2024).
# Test: Iron dissolution test, rotating basket apparatus, sample in dialysis membrane, 0.01 N HCl
# Type: physicochemical
# Settings: for percentage of dissolved iron: after 120 minutes; for dissolution rate: sample in 1.0 ml 0.01 N HCl (method A) in dialysis membrane, linear trend
# [1] = 1.0 ml 0.01 N HCl, dialysis membrane
# Procedure: The dissolution test was performed with rotating basket apparatus according to Eur. Pharmacopoeia 9th Edition choosing hydrochloric acid to simulate the gastric fluid.
# A first series of assays were performed placing the product into a dialysis membrane with adequate volumes of hydrochloric acid (1.0 or 2.0 ml). In this case, the dissolution medium was 0.01 N (pH=2) hydrochloric acid, as the dialysis membrane is not compatible with pH values lower than 2.
# Experimental method: the dialysis membrane (Spectrum Labs Spectra/Por 3; MWCO; 3500 kDa) was hydrated for one night (16 hours) in deionized water before the test. […] The bags were closed and placed into the basket of the dissolution apparatus.
# Then, the basket was immersed in 100 ml of 0.01 N HCl and the dissolution test was carried out at a temperature of 37° C. with a rotation speed of 75 rpm/min, withdrawing, at appropriate times, samples of dissolution phase that were immediately replaced with fresh solvent in order to maintain constant sink condition.
# Experimental method: after hydration of the dialysis membrane for one night in deionized water, three exactly weighted samples of Feralgina® having different weights (range 20-30 mg) were dissolved with 1.0 ml (method A) or with 2.0 ml (method B) of hydrochloric acid (0.01 N) and the resulting solutions were placed into the hydrated dialysis membrane. The bags were perfectly closed and placed into the basket of the dissolution apparatus. […] The basket was immersed in 100 ml of 0.01 N HCl at a temperature of 37° C., with a rotation speed of 75 rpm/min, collecting samples of dissolution medium at appropriate times immediately replaced with fresh solvent in order to keep the dissolution constant (sink condition).
# The dissolution tests of TecnoFERPlus were performed with two different experimental methods that involved, in one case, the use of the dialysis membrane and experimental conditions similarly to those followed for iron sulfate and iron bisglycinate with different volumes of hydrochloric acid 0.01 N, and in the second one, the use of TecnoFERPlus (capsule) without the dialysis membrane.
Structure (SMILES),percentage of dissolved iron [1],dissolution rate,"amount of iron dissolved in the medium, of the total content (after 15 minutes, 1.0 ml 0.01 N HCl, dialysis membrane)"
O=S(=O)([O-])[O-].[Fe+2] [iron sulphate],about 61%,0.439 min⁻¹,
NCC(=O)[O][Fe][O]C(=O)CN [Iron bis-glycinate chelate],about 60%,0.378 min⁻¹,about 20%
